Test results as given in patent US5206223A, “Method for inhibiting heparanase activity” (Yeda Research and Development Co. Ltd., priority 1986, dated 1993).

How the values were obtained:
DTH reaction [1] = assay: In situ DTH: I-LNC injected directly into the ears; assay type: in vivo, mice; conditions: heparin 5 u.g, I-LNC intradermally into ears, 24 h
Experimental: If inhibition of heparanase and heparanase-dependent traffic is the major mechanism by which low dose heparin suppresses DTH, then one might be able to bypass the inhibition of DTH by bypassing the need for vascular traffic of sensitized T lymphocytes. Accordingly we treated recipient mice with an inhibitory dose (5 μg) of heparin, and then injected the donor I-LNC directly into the ears, rather than intravenously. Table 7 illustrates that putting the sensitized lymphocytes in situ bypassed the inhibitory effect on the DTH of 5 μg of heparin. Thus low dose heparin treatment appeared to inhibit DTH only when the DTH-mediat lymphocytes had to make their way to the site of the antigen by way of the circulation.
I-LNC were obtained from BALB/c mice sensitized to OX 5 days earlier. The I-LNC were centrifuged, resuspended in RPMI medium and injected intradermally (3×10^6 cells/20 μ/l) into the dorsal surface of the ears of naive recipient mice. The ears were challenged with OX immediately after cell transfer. The magnitude of DTH ear swelling was determined 24 h later.

rheumatoid arthritis = assay: Treatment of patients with rheumatoid arthritis; assay type: in vivo, human; conditions: about 300-500 units daily for 1 month, three patients
From the text: As DTH reactions to self antigens are involved in autoimmune diseases, we have begun to test low dose heparin (about 300-500 units daily) in patients with rheumatoid arthritis.

renal allograft = conditions: subanticoagulant s.c. doses, 5000 U daily; cited from earlier work
DTH skin response = conditions: human, in vivo
lymphocytes = conditions: 17-35 mg/kg/rat; cited from earlier work
adjuvant arthritis [2] = conditions: 1000 U/rat; cited from earlier work
[3] = Partial thromboplastin time in human volunteers; assay type: in vivo; conditions: 3 mg (500 units) per day
Experimental: The effective dose of heparin, 3 mg (500 units) per day, was computed from the optimal dose per weight in mice and rats and corrected for surface area. […] (not shown).

heparanase [4] = assay: Heparanase activity of I-LNC from heparin-treated OX-immunized mice; conditions: 5 μg per injection in vivo, I-LNC incubated 48 h with labeled ECM
Experimental: Mice were immunized with OX on days 0 and 5. Some of the mice were treated with heparin (5 μg or 25 μg per injection) 18 h before and 2, 10 and 20 h after the day 5 immunization with OX. On day 6, the I-LNC were removed and tested for heparanase activity by incubation for 48 h with labeled ECM. Heparan sulfate degradation products are shown for I-LNC from the following groups of mice: No heparin; 25 μg heparin X; 5 μg heparin-0. The LNC of control mice not immunized to OX had no heparanase activity (not shown).
To learn if these effects were associated with inhibition of endogenous heparanase, we treated mice with high (25 μg) or low (5 μg) doses of heparin, sensitized them to OX and tested their I-LNC for heparanase activity in vitro. […] Thus, treatment with 5 μg of heparin in vivo caused a substantial decrease of enzyme activity in sensitized lymphocytes.

heparanase [5] = assay: Inhibition of T lymphocyte heparanase activity (degradation of 35S-labeled heparan sulfate of extracellular matrix); assay type: biochemical; conditions: medium of activated T lymphocytes, 35S-labeled extracellular matrix, various concentrations
Experimental: Heparanase activity was induced into the extracellular medium bathing activated T lymphocytes and tested by incubating the medium with extracellular matrix whose heparan sulfate was labeled with ^35 S as described (Naparstek, Y., Cohen, I. R., Fuks, Z. and I. Vlodavsky. Activated T lymphocytes produce a matrix-degrading heparan sulphate endoglycosidase. Nature 310:241 (1984)). Inhibition of heparanase activity was tested by adding various concentrations of heparin or modified heparins to the reaction mixture and measuring the effect on degradation of the labeled heparin-sulfate as described (Naparstek, Y., Cohen, I. R., Fuks, Z. and I. Vlodavsky.
Activated T lymphocytes produce a matrix-degrading heparan sulphate endoglycosidase, Nature 310:241 (1984)). Totally desulfated heparin and N-desulfated, N-acetylated heparin was prepared as described. (Ayotte, L., A. S. Perlin. NMR spectroscopic observations related to the function of sulfate groups in heparin. Calcium binding vs. biological activity. Carbohydrate Res. 145:267 (1986)).

adjuvant arthritis [6] = assay: Adjuvant arthritis induced with M. tuberculosis; assay type: in vivo, Lewis rats; conditions: for Adjuvant arthritis maximum clinical score: scale 0-16
DTH reaction [7] = assay: Adoptively transferred DTH to OX: ear swelling and 51Cr I-LNC migration to the ear; assay type: in vivo, mice; conditions: for DTH ear swelling (FIG. 6 left): I-LNC transferred intravenously, 24 h
Experimental: I-LNC were obtained from OX sensitized mice (groups A-C) and naive LNC from unsensitized mice (group D). The LNC were transferred intravenously to naive recipients that were treated (groups B-C) or untreated (groups A,D) with heparin (5 μg or 20 μg) injected 18 h and 1 h prior to cell transfer and 20 h after cell transfer. DTH ear swelling was elicited by OX at the time of cell transfer and measured 24 h later.
Right: Heparin inhibits cell migration to DTH challenge site. The experiment was done as described in FIG. 6 (left), except that I-LNC were radiolabeled with ^51 Cr prior to cell transfer into naive recipient mice. The accumulation of I-LNC in the OX challenged ears is indicated as the ^51 Cr (cpm/ear).
Mice were sensitized to 4-ethoxymethylene-2-phenyl oxazolone (OX) by painting their skins twice at 5 day intervals with about 0.1 ml of 3% OX in a vehicle of 4:1 acetone:olive oil (by volume). Their immunized draining lymph node cells (I-LNC) were then transfered (5×10^7) to recipient mice intravenously. The ability of the I-LNC to reach the site of antigen and produce a DTH reaction was assayed by challenging the recipient mice 1 hr after I-LNC transfer with 0.02 ml of 0.5% OX painted on the ear. DTH was ascertained by measuring the thickness of the ears 24 hrs later with an engineers micrometer.
The ability of the transfered I-LNC to reach the ears was tested by labeling the I-LNC before transfer with radioactive ^51 Cr (10^7 cells/ml incubated with 0.1 mCi ^51 Cr sodium chromate and washed) and measuring the amount cpm reaching the ears at the time of DTH.

[8] = 0.001 mg s.c. once daily for 5 days from day 9
[9] = 0.005 mg s.c. once daily for 5 days from day 9
[10] = 0.01 mg s.c. once daily for 5 days from day 9
[11] = 0.02 mg s.c. once daily for 5 days from day 9

heparin
Ear swelling (DTH reaction [1]; OX challenge no, no heparin 9 ± 1.0): 8 ± 1.0 ×10^-4 inch | Ear swelling (DTH reaction [1]; OX challenge yes, no heparin 22 ± 3.4): 20.4 ± 1.6 ×10^-4 inch | Clinical improvement of severe rheumatoid arthritis (rheumatoid arthritis): all 3 were improved | Early renal allograft function and graft survival (renal allograft): no effect on early graft function or graft survival | Effect on the DTH response (FIG. 9) (DTH skin response): did not have a significant inhibitory effect | Extent of induration (DTH skin response): decreased similarly | Mean diameter of erythema to mumps during treatment (DTH skin response): 13.6 mm | Mean diameter of erythema to tetanus toxoid during treatment (DTH skin response): 16.8 mm | Reversibility of the effect on the DTH response (FIG. 9) (DTH skin response): transient | Volunteers with significantly decreased DTH response to mumps (DTH skin response; sc): 11/12 | Volunteers with significantly decreased DTH response to tetanus (DTH skin response; sc): 10/12 | Emigration of lymphocytes from the circulation (lymphocytes): inhibit the emigration of lymphocytes from the circulation | Severity of rat adjuvant arthritis (adjuvant arthritis [2]): enhanced the severity of the rat adjuvant arthritis | Partial thromboplastin time [3]: no change in the partial thromboplastin time | Heparanase activity of I-LNC (FIG. 7) (heparanase [4]): lacked heparanase activity | Inhibition of degradation of heparan sulfate by heparanase (heparanase [5]): yes | Adjuvant arthritis duration (adjuvant arthritis [6]; [8]): 20 days | Adjuvant arthritis maximum clinical score (adjuvant arthritis [6]; [8]): 6 | Adjuvant arthritis duration (adjuvant arthritis [6]; [9]): 16 days | Adjuvant arthritis maximum clinical score (adjuvant arthritis [6]; [9]): 4 | Adjuvant arthritis duration (adjuvant arthritis [6]; [10]): 15 days | Adjuvant arthritis maximum clinical score (adjuvant arthritis [6]; [10]): 5 | Adjuvant arthritis duration (adjuvant arthritis [6]; [11]): 8 days | Adjuvant arthritis maximum clinical score (adjuvant arthritis [6]; [11]): 2 | Adjuvant arthritis duration (adjuvant arthritis [6]; 0.04 mg s.c. once daily for 5 days from day 9, dose 0: >20): > 20 days | Adjuvant arthritis maximum clinical score (adjuvant arthritis [6]; 0.04 mg s.c. once daily for 5 days from day 9, dose 0: 10): 10 | Inhibition of arthritis (adjuvant arthritis [6]; rat, in vivo): yes | Arthritis score (day 60) (adjuvant arthritis [6]; rat, in vivo, sc): 0 | Accumulation of 51Cr I-LNC in OX challenged ears (cpm/ear, FIG. 6 right) (DTH reaction [7]; 5 μg per injection): decreased cpm | DTH ear swelling (FIG. 6 left) (DTH reaction [7]; 5 μg per injection): decreased ear swelling | Accumulation of 51Cr I-LNC in OX challenged ears (cpm/ear, FIG. 6 right) (DTH reaction [7]; 20 μg per injection): did not inhibit | DTH ear swelling (FIG. 6 left) (DTH reaction [7]; 20 μg per injection): did not inhibit
